From US20130189186A1, “APOPTOSIS IMAGING AGENTS BASED ON LANTIBIOTIC PEPTIDES” (GE HEALTHCARE LIMITED, priority 2010, published 2013) come the findings set out here.

The subject of the experiment is phosphatidyl ethanolamine. As to the kind of experiment: Biacore affinity for phosphatidyl ethanolamine (POPE/POPC liposomes captured on L1 chip). Particulars: Biacore 3000, L1 chip, POPE/POPC liposomes (20% PE). In kind it is binding. The source says:
A Biacore 3000 (GE Healthcare, Uppsala) was equipped with an L1 chip. Liposomes made of POPE/POPC (20% PE) were applied for the affinity study using the capture technique recommended by the manufacturer. Each run consisted of activation of the chip surface, immobilization of liposomes, binding of peptide and wash off of both liposomes and peptide (regeneration). Similar applications can be found in Frostell-Karlsson et al [Pharm. Sciences, V.94 (1), (2005)]. Thorough washing of needle, tubing and liquid handling system with running buffer was performed after each cycle.
BIACORE software: The BIACORE control software including all method instructions was applied. A method with commands was also written in the BIACORE Method Definition Language (MDL) to have full control over pre-programmed instructions. BIACORE evaluation software was applied for analysing the sensorgrams.
In general terms: SPR reads the build-up and loss of mass on a sensor chip optically.

With Duramycin, the “ka” value is about 20000 M⁻¹ s⁻¹.
